Laboratory results published in publication PMC11500415, “Chemical inhibition of stomatal differentiation by perturbation of the master-regulatory bHLH heterodimer via an ACT-Like domain” (Nature Communications, 2024).
“And” between values parts separate entries of the source, which are not always exact repeats. Identical values can stand only once. Like-named read-outs stand apart in the source and are kept apart here.

What was measured:
Test in all cases: BLI direct binding
Set-up in all cases: species or system A. thaliana
MUTE bHLH domain = molecular target: T1, MUTE bHLH domain (Arabidopsis thaliana, UniProt Q9M8K6); conditions: for Response: BLI, GST-MUTE_bHLH on Anti-GST sensor, unit assumed
T1 construct: MUTEΔC (1-114); made in house; host or cells: E. coli BL21
T1 sequence (Q9M8K6 1-114): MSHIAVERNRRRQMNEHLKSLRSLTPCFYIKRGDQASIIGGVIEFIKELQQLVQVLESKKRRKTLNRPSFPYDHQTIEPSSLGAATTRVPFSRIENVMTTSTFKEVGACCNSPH
Description: (§1) A. thaliana SCRM (1-494), ΔNSPCH (98-364), MUTE (1-202), ΔNFAMA (190-414), MUTEΔC (1-114), MUTER133A_R134A, MUTEE162A_E163A, MUTER133A_R134A_E162A_E163A, SCRM-ACTL (405-494), MUTE-ACTL (114-202), SPCH-ACTL (285-364), FAMA-ACTL (306-414), MUTE_ACTLR133A_R134A, MUTE_ACTLE162A_E163A, MUTE_ACTLR133A_R134A_E162A_E163A were cloned into pGEX-4T-1 vector with an N-terminal GST tag and a thrombin cleavage sequence. For protein expression, the constructs were transformed into E. coli strain BL21. For each transformant, a single colony was selected and incubated in 10 ml LB liquid media. The overnight-incubated E. coli suspensions were transferred to 1 L LB medium and incubated at 37 °C for around 2 h until the OD600 reached 0.4–0.6. The isopropyl β-D-1-thiogalactopyranoside ([…] of final concentration) was added to the cultures and the strains were incubated at 22 °C for a further 18 h. GST-fused proteins were purified using glutathione agarose resin. The soluble portion of the cell lysate was loaded onto a GST-Sepharose column. Nonspecifically bound proteins were removed by washing the column with 20 mM Tris pH 8.0, 200 mM NaCl. The bound GST-fused protein was eluted with 10 mm glutathione and 20 mM Tris pH 8.0, 200 mM NaCl. The GST-fused proteins were exchanged with phosphate-buffered saline buffer, and then the solution was treated with 50 μg of thrombin for 10–12 h at 16 ^οC. The GST portion of the protein was cleaved during thrombin digestion, and then the whole solution was reloaded onto the glutathione S-transferase column to obtain pure protein. The purified proteins were further purified by gel filtration on a Superdex-200 (GE) column using fast protein liquid chromatography and phosphate buffer (pH 7.2) as the eluent. The purity of the protein was checked by SDS-PAGE. For detailed lists of oligo DNA and plasmid information, see Supplementary Tables 5, 6, respectively.
(§2) The binding affinities of SCRM to MUTE / MUTER133A_R134A / MUTEE162A_E163A / MUTER133A_R134A_E162A_E163A in presence and absence of Stomidazolone (3) and its analogues (AYSJ1059 (5) and AYSJ1061 (6)), and Stomidazolone / AYSJ1059 / AYSJ1061 interactions with GST-tagged SCRM, MUTE, SPCH, FAMA, MUTE ΔACTL, MUTE_ACTL, SCRM_ACTL, SPCH_ACTL and FAMA_ACTL, MUTER133A_134A, MUTEE162A_E163A, MUTER133A_R134A_E162A_E163A were measured using the Octet Red96 system (ForteBio, Pall Life Sciences) following the manufacturer’s protocols. The optical probes coated with anti-GST were first loaded with 500 nM GST tagged proteins before kinetic binding analyses. The experiment was performed in 96-well plates maintained at 30 °C. Each well was loaded with 200 μL reaction volume for the experiment. The binding buffer used in these experiments contained 1× PBS supplemented with 2% DMSO, 0.02% Tween20. The concentrations of the Stomidazolone as the analyte in the binding buffer were 100, 50, 25, 12.5, 6.25, 3.12, and 1.56 μM. There was no binding of the analytes to the unloaded probes as shown by the control wells. Binding kinetics to all seven concentrations of the analytes were measured simultaneously using default parameters on the instrument. The data were analyzed using the Octet data analysis software. The association and dissociation curves were fit with the 1:1 homogeneous ligand model. The kobs (observed rate constant) values were used to calculate Kd, with steady-state analysis of the direct binding. See Supplementary Table 3 for details.

FAMA = molecular target: T2, FAMA (Arabidopsis thaliana, UniProt Q56YJ8)
T2 construct: ΔNFAMA (190-414); made in house; host or cells: E. coli BL21
T2 sequence (Q56YJ8 190-414): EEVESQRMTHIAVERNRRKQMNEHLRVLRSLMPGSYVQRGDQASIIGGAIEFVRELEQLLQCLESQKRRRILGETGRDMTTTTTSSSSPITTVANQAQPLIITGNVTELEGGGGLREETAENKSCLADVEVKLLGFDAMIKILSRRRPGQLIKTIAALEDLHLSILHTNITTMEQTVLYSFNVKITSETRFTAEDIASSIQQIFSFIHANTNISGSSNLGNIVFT
Description: as §1, §2

SCRM_ACTL = molecular target: T3, SCRM_ACTL (Arabidopsis thaliana, UniProt Q9LSE2)
T3 construct: SCRM-ACTL (405-494); GST (N, cleaved yes); made in house; host or cells: E. coli BL21
T3 sequence (Q9LSE2 405-494): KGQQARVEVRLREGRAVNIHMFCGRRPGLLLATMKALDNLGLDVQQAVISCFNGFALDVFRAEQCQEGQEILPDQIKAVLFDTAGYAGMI
Description: as §1, §2

[1] = FAMA loaded on Anti-GST sensor, fit per sensor, Stomid Conc. (mM) 200-3.12, rep-1, rep-2
[2] = FAMA, Conc. (mM) 3.12, rep-1, rep-2
[3] = FAMA, Conc. (mM) 6.25, rep-1, rep-2
[4] = FAMA, Conc. (mM) 12.5, rep-1, rep-2
[5] = FAMA, Conc. (mM) 25, rep-1, rep-2
[6] = FAMA, Conc. (mM) 50, rep-1, rep-2
[7] = FAMA, Conc. (mM) 100, rep-1, rep-2
[8] = FAMA, Conc. (mM) 200, rep-1, rep-2

Question: Which results are given for `O=C1C(c2ccccc2)=NC(NS(=O)(=O)c2ccccc2)(c2ccccc2)N1S(=O)(=O)c1ccccc1` (stereo not shown) [Stomidazolone]?
Answer: binding to MUTE bHLH versus ACTL domain (in words) (MUTE bHLH domain; BLI (Fig. 6h)): specifically binds to the ACTL domain; Response (MUTE bHLH domain; Stomid Conc. (nM) 6.25): 0.0607 nm; Response (MUTE bHLH domain; Stomid Conc. (nM) 12.5): 0.0612 nm; Response (MUTE bHLH domain; Stomid Conc. (nM) 25): 0.0712 nm; Response (MUTE bHLH domain; Stomid Conc. (nM) 50): 0.0833 nm; Response (MUTE bHLH domain; Stomid Conc. (nM) 100): 0.0921 nm; Response (MUTE bHLH domain; Stomid Conc. (nM) 200): 0.106 nm; Kd (FAMA; BLI steady state, FAMA, read-out: KD (SS)): 0.0782 ± 0.0065 mM; kdis (FAMA; [1]): 0.177 s⁻¹ and 0.176 s⁻¹ and 0.175 s⁻¹ and 0.178 s⁻¹ and 0.171 s⁻¹ and 0.18 s⁻¹; kon (FAMA; [1]): 2080 M⁻¹ s⁻¹; Kd (FAMA; FAMA loaded on Anti-GST sensor, fit per sensor, Stomid Conc. (mM) 200-3.12, rep-1, rep-2, read-out: KD): 0.0867 mM and 0.0859 mM and 0.0882 mM and 0.0891 mM and 0.0863 mM and 0.0866 mM and 0.0851 mM and 0.0817 mM and 0.0856 mM and 0.0903 mM and 0.0845 mM; RMax (FAMA; [2]): 0.095 and 0.0512; Req/Rmax(%) (FAMA; [2]): 100%; Response (FAMA; [2]): 0.0912 and 0.0512; kobs (FAMA; [2]): 0.00577 s⁻¹ and 0.0035 s⁻¹; RMax (FAMA; [3]): 0.108 and 0.0812; Req/Rmax(%) (FAMA; [3]): 97% and 100%; Response (FAMA; [3]): 0.1071 and 0.0812; RMax (FAMA; [4]): 0.124 and 0.1621; Response (FAMA; [4]): 0.1223 and 0.1621; RMax (FAMA; [5]): 0.165 and 0.1913; Response (FAMA; [5]): 0.1623 and 0.1913; RMax (FAMA; [6]): 0.251 and 0.2843; Req/Rmax(%) (FAMA; [6]): 89%; Response (FAMA; [6]): 0.2461 and 0.2843; RMax (FAMA; [7]): 0.435 and 0.3712; Response (FAMA; [7]): 0.4312 and 0.3712; RMax (FAMA; [8]): 0.553 and 0.5072; Req/Rmax(%) (FAMA; [8]): 98%; Response (FAMA; [8]): 0.5523 and 0.5072; koff (FAMA; read-out: kdis(1/s), FAMA loaded on Anti-GST sensor, fit per sensor, Stomid Conc. (mM) 200-3.12, rep-1, rep-2): 0.179 s⁻¹; kon (FAMA; read-out: kon(1/Ms), FAMA loaded on Anti-GST sensor, fit per sensor, Stomid Conc. (mM) 200-3.12, rep-1, rep-2): 2070 M⁻¹ s⁻¹; Kd (SCRM_ACTL; BLI steady state, read-out: KD (SS)): 76 ± 6.8 µM; Kd (SCRM_ACTL; BLI, read-out: KD): 78.2 ± 1.2 µM
